Measurements taken from patent US6727264B1 (Synaptic Pharmaceutical Corporation, priority 2001, dated 2004).

The compounds below were run against rat MCH-1 (Rattus norvegicus, UniProt P97639) (assay: Radioligand binding assay at cloned rat MCH1 receptor ([3H] Compound A)). Settings: cloned rat MCH1 receptor; 0.08 nM [3H] Compound A; Peakr293 cell membranes; read-out: Ki (nM) rMCH1.
Design: host or cells: Peak rapid 293 (Peakr293) cells, transient calcium phosphate transfection, membranes

Chain of rat MCH-1 (P97639 whole entry): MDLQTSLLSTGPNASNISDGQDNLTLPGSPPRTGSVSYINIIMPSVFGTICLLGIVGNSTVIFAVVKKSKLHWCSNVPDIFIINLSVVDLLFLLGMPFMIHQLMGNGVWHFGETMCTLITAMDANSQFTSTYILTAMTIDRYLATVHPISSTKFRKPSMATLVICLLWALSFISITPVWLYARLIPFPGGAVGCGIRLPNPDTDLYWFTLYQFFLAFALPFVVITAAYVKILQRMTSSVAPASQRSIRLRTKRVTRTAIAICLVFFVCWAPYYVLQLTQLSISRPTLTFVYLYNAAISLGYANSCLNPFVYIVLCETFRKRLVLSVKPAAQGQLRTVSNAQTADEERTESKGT

Row | SMILES | Ki [nM]
1 | CC(C)C(=O)Nc1cccc(C2CCN(CCCCCCNC(=O)c3ccc(Oc4cc(Cl)cc(Cl)c4)o3)CC2)c1 [Example 626] | 20.9
2 | CC(C)C(=O)Nc1cccc(C2CCN(CCCCCCNC(=O)c3cccnc3Oc3ccccc3)CC2)c1 [Example 627] | 109
3 | CC(C)C(=O)Nc1cccc(C2CCN(CCCCCCNC(=O)c3ccc4ccccc4c3)CC2)c1 [Example 628] | 161
4 | CC(C)C(=O)Nc1cccc(C2CCN(CCCCCCNC(=O)c3cc(C(C)(C)C)nn3Cc3ccccc3)CC2)c1 [Example 629] | 42.9
5 | CC(C)C(=O)Nc1cccc(C2CCN(CCCCCCNC(=O)c3scc(S(=O)(=O)C(C)C)c3Cl)CC2)c1 [Example 630] | 202
6 | CC(C)C(=O)Nc1cccc(C2CCN(CCCCCCNC(=O)Nc3ccccc3)CC2)c1 [Example 631] | 259
7 | CC(C)C(=O)Nc1cccc(C2CCN(CCCCCCNC(=O)Nc3ccc(Cl)cc3Cl)CC2)c1 [Example 632] | 76.6
8 | CCCc1c(C(=O)NCCCCCCN2CCC(c3cccc(NC(=O)C(C)C)c3)CC2)cnn1-c1ccccc1 [Example 633] | 108
9 | CC(C)C(=O)Nc1cccc(C2CCN(CCCCCCNC(=O)Nc3cccc4ccccc34)CC2)c1 [Example 634] | 116
10 | CC(C)C(=O)Nc1cccc(C2CCN(CCCCCCNC(=O)Nc3ccc(-c4ccccc4)cc3)CC2)c1 [Example 635] | 73.6
11 | CC(C)C(=O)Nc1cccc(C2CCN(CCCCCCNC(=O)Nc3ccc4ccccc4c3)CC2)c1 [Example 636] | 40.8
12 | COc1ccc(S(=O)(=O)NCCCN2CCC(c3cccc(NC(=O)C(C)C)c3)CC2)cc1OC [Example 637] | 106
13 | Cc1onc(-c2ccccc2)c1C(=O)NCCCN1CCC(c2cccc(NC(=O)C(C)C)c2)CC1 [Example 638] | 29.8
14 | CC(C)C(=O)Nc1cccc(C2CCN(CCCNC(=O)Cc3ccc(F)cc3)CC2)c1 [Example 639] | 36.3
15 | CC(C)C(=O)Nc1cccc(C2CCN(CCCNS(=O)(=O)c3ccc(Cl)c([N+](=O)[O-])c3)CC2)c1 [Example 640] | 11.2
16 | CC(C)C(=O)Nc1cccc(C2CCN(CCCNC(=O)c3cccnc3Oc3ccc(Cl)cc3)CC2)c1 [Example 641] | 14.2
17 | CC(C)C(=O)Nc1cccc(C2CCN(CCCNC(=O)c3ccc(Oc4cc(Cl)cc(Cl)c4)o3)CC2)c1 [Example 642] | 8.3
18 | CC(C)C(=O)Nc1cccc(C2CCN(CCCNS(=O)(=O)c3ccccc3F)CC2)c1 [Example 643] | 130
19 | Cc1noc(C)c1S(=O)(=O)NCCCN1CCC(c2cccc(NC(=O)C(C)C)c2)CC1 [Example 644] | 196
20 | CC(C)C(=O)Nc1cccc(C2CCN(CCCNS(=O)(=O)c3ccc(C(C)(C)C)cc3)CC2)c1 [Example 645] | 85.3
21 | CC(C)C(=O)Nc1cccc(C2CCN(CCCCCCN)CC2)c1 [Example 646] | 236
22 | CC(C)C(=O)Nc1cccc(C2CCN(CCNC(=O)Nc3ccc(-c4ccccc4)cc3)CC2)c1 [Example 647] | 81.6
23 | CC(C)C(=O)Nc1cccc(C2CCN(CCNC(=O)c3coc(Oc4cc(Cl)cc(Cl)c4)c3)CC2)c1 [Example 648] | 13.4
24 | CC(C)C(=O)Nc1cccc(C2CCN(CCNC(=O)C(c3ccccc3)c3ccccc3)CC2)c1 [Example 649] | 1.7

Row | SMILES | Ki [nM]
25 | CC(C)C(=O)Nc1cccc(C2CCN(CCNC(=O)c3ccc4ccccc4c3)CC2)c1 [Example 650] | 21.1
26 | Cc1onc(-c2c(Cl)cccc2Cl)c1C(=O)NCCCCN1CCC(c2cccc(NC(=O)C(C)C)c2)CC1 [Example 651] | 16.7
27 | CC(C)C(=O)Nc1cccc(C2CCN(CCCCNC(=O)C(c3ccccc3)c3ccccc3)CC2)c1 [Example 653] | 48.8
28 | CC(C)C(=O)Nc1cccc(C2CCN(CCCCCNC(=O)C(c3ccccc3)c3ccccc3)CC2)c1 [Example 654] | 43.6
29 | CC(C)C(=O)Nc1cccc(C2CCN(CCCCNC(=O)c3cc(Cl)cc(Cl)c3)CC2)c1 [Example 655] | 31.1
30 | CC(C)C(=O)Nc1cccc(C2CCN(CCCCNC(=O)c3ccc(Oc4cc(Cl)cc(Cl)c4)o3)CC2)c1 [Example 656] | 49.7
31 | CC(C)C(=O)Nc1cccc(C2CCN(CCCCNC(=O)c3cccc(Cl)c3)CC2)c1 [Example 657] | 77.9
32 | CC(C)C(=O)Nc1cccc(C2CCN(CCCCNC(=O)c3ccc(F)c(F)c3)CC2)c1 [Example 658] | 12
33 | CC(C)C(=O)Nc1cccc(C2CCN(CCCCNC(=O)Nc3cc(Cl)cc(Cl)c3)CC2)c1 [Example 659] | 40.2
34 | CC(C)C(=O)Nc1cccc(C2CCN(CCCCNC(=O)Nc3ccc(-c4ccccc4)cc3)CC2)c1 [Example 660] | 129
35 | CC(C)C(=O)Nc1cccc(C2CCN(CCCCC(=O)c3ccc([N+](=O)[O-])cc3)CC2)c1 [Example 661] | 33.3
36 | CC(C)C(=O)Nc1cccc(C2CCN(CCCCC(=O)c3ccc(F)cc3)CC2)c1 [Example 662] | 50.3
37 | CC(C)C(=O)Nc1cccc(C2CCN(CCCCC(=O)c3ccccc3C(F)(F)F)CC2)c1 [Example 663] | 73.4
38 | CC(C)C(=O)Nc1cccc(C2CCN(CCCCC(=O)c3cccc(Br)c3)CC2)c1 [Example 664] | 21.9
39 | CC(C)C(=O)Nc1cccc(C2CCN(CCCCC(=O)c3cccc(Cl)c3)CC2)c1 [Example 666] | 21.9
40 | CC(C)C(=O)Nc1cccc(C2CCN(CCCCC(=O)c3ccc(Br)cc3)CC2)c1 [Example 667] | 43.9
41 | CC(C)C(=O)Nc1cccc(C2CCN(CCCCC(=O)c3ccccc3I)CC2)c1 [Example 668] | 25.8
42 | CC(C)C(=O)Nc1cccc(C2CCN(CCCCC(=O)c3cccc(F)c3)CC2)c1 [Example 669] | 42.2
43 | CC(C)C(=O)Nc1cccc(C2CCN(CCCCC(=O)c3cccc(C(F)(F)F)c3)CC2)c1 [Example 670] | 57.6
44 | CC(C)C(=O)Nc1cccc(C2CCN(CCCCC(=O)c3ccccc3F)CC2)c1 [Example 671] | 88.6
45 | CC(C)C(=O)Nc1cccc(C2CCN(CCCCC(=O)c3cccc(I)c3)CC2)c1 [Example 672] | 19.7
46 | CC(C)C(=O)Nc1cccc(C2CCN(CCCCC(=O)c3ccccc3Cl)CC2)c1 [Example 673] | 32.5
47 | CC(C)C(=O)Nc1cccc(C2CCN(CCCCC(=O)c3ccc(C(F)(F)F)cc3)CC2)c1 [Example 674] | 39.6
48 | CC(C)C(=O)Nc1cccc(C2CCN(CCCCC(=O)c3ccc(Cl)cc3)CC2)c1 [Example 675] | 32.6

Row | SMILES | Ki [nM]
49 | CC(C)C(=O)Nc1cccc(C2CCN(CCCCC(=O)c3ccc(I)cc3)CC2)c1 [Example 676] | 21.9
50 | CC(C)C(=O)Nc1cccc(C2CCN(CCCCC(=O)c3ccccc3Br)CC2)c1 [Example 677] | 52.3
51 | CC(C)C(=O)Nc1cccc(C2CCN(CCCCNC(=O)c3cccnc3Oc3ccc(Cl)cc3)CC2)c1 [Example 678] | 14.7
52 | COc1ccc(C(=O)NCCCCN2CCC(c3cccc(NC(=O)C(C)C)c3)CC2)cc1OC [Example 679] | 97.9
53 | Cc1onc(-c2ccccc2Cl)c1C(=O)NCCCCN1CCC(c2cccc(NC(=O)C(C)C)c2)CC1 [Example 680] | 28.1
54 | Cc1onc(-c2ccccc2Cl)c1C(=O)NCCCCCN1CCC(c2cccc(NC(=O)C(C)C)c2)CC1 [Example 681] | 23.9
55 | CC(C)C(=O)Nc1cccc(C2CCN(CCCc3c(-c4ccc(C(F)(F)F)cc4)n(C)c4ccccc34)CC2)c1 [Example 682] | 7.1
56 | CC(C)C(=O)Nc1cccc(C2CCN(CCCc3c(-c4ccc(C(F)(F)F)cc4)[nH]c4ccc(OC(F)(F)F)cc34)CC2)c1 [Example 683] | 54.2
57 | CC(C)C(=O)Nc1cccc(C2CCN(CCCc3c(-c4ccc(C(F)(F)F)cc4)[nH]c4ccccc34)CC2)c1 [Example 684] | 5.4
58 | CC(C)C(=O)Nc1cccc(C2CCN(CCCc3c(-c4ccc(C(F)(F)F)cc4)n(-c4ccccc4)c4ccccc34)CC2)c1 [Example 685] | 82.4
59 | CC(C)C(=O)Nc1cccc(C2CCN(CCCc3c(-c4ccc(C(F)(F)F)cc4)[nH]c4c3ccc3ccccc34)CC2)c1 [Example 686, 2-METHYL-N-{3-[1-(3-(2-[4-(TRIFLUOROMETHYL)PHENYL]-1H-BENZO [G]INDOL-3-YL}PROPYL)-4-PIPERIDINYL]PHENYL}PROPANAMIDE] | 33.9
60 | Cc1cccc2c(CCCN3CCC(c4cccc(NC(=O)C(C)C)c4)CC3)c(-c3ccc(C(F)(F)F)cc3)[nH]c12 [Example 687] | 20.6
61 | Cc1ccc2[nH]c(-c3ccc(C(F)(F)F)cc3)c(CCCN3CCC(c4cccc(NC(=O)C(C)C)c4)CC3)c2c1 [Example 688] | 41
62 | COc1ccc2[nH]c(-c3ccc(C(F)(F)F)cc3)c(CCCN3CCC(c4cccc(NC(=O)C(C)C)c4)CC3)c2c1 [Example 689] | 11.3
63 | Cc1cccc2c(CCCN3CCC(c4cccc(NC(=O)C(C)C)c4)CC3)c(-c3cccc(F)c3)[nH]c12 [Example 690] | 5.2
64 | CC(C)C(=O)Nc1cccc(C2CCN(CCCc3c(-c4ccc(Cl)cc4)n(C)c4ccccc34)CC2)c1 [Example 691] | 16.3
65 | COc1ccc2[nH]c(-c3ccc(F)cc3)c(CCCN3CCC(c4cccc(NC(=O)C(C)C)c4)CC3)c2c1 [Example 692] | 2
66 | CC(C)C(=O)Nc1cccc(C2CCN(CCCc3c(-c4ccccc4F)[nH]c4ccccc34)CC2)c1 [Example 693] | 0.4
67 | CC(C)C(=O)Nc1cccc(C2CCN(CCCc3c(-c4cccc(F)c4)[nH]c4ccc(OC(F)(F)F)cc34)CC2)c1 [Example 694] | 6.4
68 | CC(C)C(=O)Nc1cccc(C2CCN(CCCc3c(-c4ccccc4F)[nH]c4ccc(OC(F)(F)F)cc34)CC2)c1 [Example 695] | 2.1
69 | CC(C)C(=O)Nc1cccc(C2CCN(CCCc3c(-c4ccc(F)cc4)n(-c4ccccc4)c4ccccc34)CC2)c1 [Example 696] | 48.3
70 | CC(C)C(=O)Nc1cccc(C2CCN(CCCc3c(-c4ccccc4F)[nH]c4c3ccc3ccccc34)CC2)c1 [Example 697] | 3
71 | Cc1ccc2[nH]c(-c3ccccc3F)c(CCCN3CCC(c4cccc(NC(=O)C(C)C)c4)CC3)c2c1 [Example 698] | 3
72 | CC(C)C(=O)Nc1cccc(C2CCN(CCCc3c(-c4cccc(F)c4)[nH]c4c3ccc3ccccc34)CC2)c1 [Example 699] | 5.4
